This assay concerns sebum production. The experiment in a line: Animal model for inhibition of sebum production (hamster ear, HPLC of sebum lipids). The format is in vivo, male Syrian hamsters. The settings on record: 4 weeks; for Sum CE + WE: sum of CE and WE reductions; for % Reduction in CE / % Reduction in WE: five days a week; for % Reduction in CE: cholesterol ester vs vehicle control; for % Reduction in WE: wax ester vs vehicle control. How it is done:
Animal Model for Inhibition of Sebum Production
Luderschmidt et al describes an animal model for testing whether compounds are capable of modulating sebum secretion. Arch. Derm. Res. 258, 185-191 (1977). This model uses male Syrian hamsters, whose ears contain sebaceous glands. The products of Examples 24, 27 and 28 were screened in this model.
Testing for sebum inhibition was carried out in the following manner. Male Syrian hamsters aged 9 to 10 weeks were introduced into the laboratory environment and acclimated for 2 weeks prior to use in the study. Each group consisted of 5 animals and run in parallel with vehicle and positive controls. Prior to administration, a sufficient quantity each compound was dissolved in 1 mL of a solvent consisting of transcutanol, ethanol, and propylene glycol (20/60/20% v/v) to achieve a final concentration of 0.5 w/v % or 3.0 w/v %.
Animals were dosed topically twice daily, five days a week, for 4 weeks. Each dose consisted of 25 micro liters of vehicle control or drug. The dose was applied to the ventral surfaces of both the right and left ears. All animals were sacrificed approximately 18-24 hours after the final dose. The right ears were collected from each animal and used for sebum analysis.
The ears were prepped for HPLC analysis in the following manner. One 8 mm distal biopsy punch was taken, just above the anatomical “V” mark in the ear to normalize the sample area. The punch was pulled apart. The ventral biopsy surface (the area where the topical dose was directly applied to the sebaceous glands) was retained for testing and the dorsal surface of the biopsy punch was discarded.
Tissue samples were blown with N2 gas and stored at −80° C. under nitrogen until HPLC analysis. In addition to ear samples, an aliquot of each drug and vehicle (at least 250 ul) was also stored at −80° C. for inclusion in the HPLC analysis.
HPLC analysis was carried out on an extract of the tissue sample. Tissue samples were contacted with 3 ml of solvent (a 4:1 admixture of 2,2,4-trimethylpentane and isopropyl alcohol). The mixture was shaken for 15 minutes and stored overnight at room temperature, protected from light. The next morning 1 milliliter of water was added to the sample and shaken for 15 minutes. The sample was then centrifuged at approximately 1500 rpm for 15 minutes. Two ml of the organic phase (top layer) was transferred to a glass vial, dried at 37° C., under nitrogen, for approximately 1 hour, and then lyophilized for approximately 48 hours. The samples were then removed from the lyophilizer and each vial was reconstituted with 600 μl of solvent A (trimethylpentane/tetrahydrofuran (99:1). The samples were then recapped and vortexed for 5 minutes.
200 μl of each sample was then transferred to a pre-labeled 200 μl HPLC vial with 200 μL glass inserts. The HPLC vials were placed in the autosampler tray for the Agilent 1100 series HPLC unit. The Agilent 1100 HPLC system consisted of a thermostated autosampler, a quarternary pump, a column heater, and an A/D interface module. All components were controlled by Agilent ChemStation software. A Waters Spherisorb S3W 4.6×100 mm analytical column was maintained at 30° C. by the Agilent column heater unit. The HPLC autosampler was programmed to maintain the sample temperature at 20 C throughout the run.
10 uL of each sample was injected in triplicate into the column. Two solvents were used for the solvent gradient. Solvent A was an admixture of trimethylpentane and tetrahydrofuran (99:1). Solvent B was ethylacetate. The gradient utilized is described in the table below: […]
The Sedex 75 Evaporative Light Scattering Detector (ELSD) was operated at 45° C. with a gain of 5, and N2 pressure maintained at 3.1 bar. Analog signal obtained by the instrument was sent to the Agilent A/D interface module where it was converted to a digital output. The conversion was based on a 10000 mAU/volt set point and the data rate was set at 10 Hz (0.03 min). […]

Setting [1] is: 0.5 w/v % topical twice daily, negative = increase in sebum.

As for `COCC(COc1ccccc1)Oc1ccc(C#N)c(C(F)(F)F)c1` (stereo not drawn) [Example 27, 4-(1-Methoxymethyl-2-phenoxy-ethoxy)-2-trifluoromethyl-benzonitrile], where the note is “3 w/v % topical twice daily”, the “Sum CE + WE” value was found to be 147, the “% Reduction in CE” value is recorded as 63% and the “% Reduction in WE” value is 84%.
For `N#Cc1ccc(OC(CO)COc2ccccc2)cc1C(F)(F)F` (stereo not drawn) [Example 28, 4-(1-Hydroxymethyl-2-phenoxy-ethoxy)-2-trifluoromethyl-benzonitrile] the same measures were 40, 11% and 19%.
With `N#Cc1ccc(OCCCCCOc2ccc(C#N)c(C(F)(F)F)c2)cc1C(F)(F)F` [Example 24], the “Sum CE + WE” value (0.5 w/v % topical twice daily) is recorded as −74. For the same compound, under setting [1], the “% Reduction in CE” value was −33% and the “% Reduction in WE” value is −41%.
